Experimental data taken from US10300067B2, “Tetrahydropyridopyrimidine compound or salt thereof” (TAIHO PHARMACEUTICAL CO., LTD., priority 2014, dated 2019).
pIC50: −log10 of the molar value.

Key:
Type in all cases: cell-based
human androgen receptor = human androgen receptor (Homo sapiens (Human), UniProt P10275); test: Antagonist activity for AR (pMMTV-luc reporter transcription activity in transfected COS-7 cells, DHT 1 nmol/L); conditions: for pIC50: 50% transcription activity inhibition concentration, COS-7 cells with pMMTV-luc and pEX-hAR, DHT 1 nmol/L, 24 hours; for antagonist activity for AR (in words): COS-7 reporter assay
Sequence of human androgen receptor (P10275 whole entry): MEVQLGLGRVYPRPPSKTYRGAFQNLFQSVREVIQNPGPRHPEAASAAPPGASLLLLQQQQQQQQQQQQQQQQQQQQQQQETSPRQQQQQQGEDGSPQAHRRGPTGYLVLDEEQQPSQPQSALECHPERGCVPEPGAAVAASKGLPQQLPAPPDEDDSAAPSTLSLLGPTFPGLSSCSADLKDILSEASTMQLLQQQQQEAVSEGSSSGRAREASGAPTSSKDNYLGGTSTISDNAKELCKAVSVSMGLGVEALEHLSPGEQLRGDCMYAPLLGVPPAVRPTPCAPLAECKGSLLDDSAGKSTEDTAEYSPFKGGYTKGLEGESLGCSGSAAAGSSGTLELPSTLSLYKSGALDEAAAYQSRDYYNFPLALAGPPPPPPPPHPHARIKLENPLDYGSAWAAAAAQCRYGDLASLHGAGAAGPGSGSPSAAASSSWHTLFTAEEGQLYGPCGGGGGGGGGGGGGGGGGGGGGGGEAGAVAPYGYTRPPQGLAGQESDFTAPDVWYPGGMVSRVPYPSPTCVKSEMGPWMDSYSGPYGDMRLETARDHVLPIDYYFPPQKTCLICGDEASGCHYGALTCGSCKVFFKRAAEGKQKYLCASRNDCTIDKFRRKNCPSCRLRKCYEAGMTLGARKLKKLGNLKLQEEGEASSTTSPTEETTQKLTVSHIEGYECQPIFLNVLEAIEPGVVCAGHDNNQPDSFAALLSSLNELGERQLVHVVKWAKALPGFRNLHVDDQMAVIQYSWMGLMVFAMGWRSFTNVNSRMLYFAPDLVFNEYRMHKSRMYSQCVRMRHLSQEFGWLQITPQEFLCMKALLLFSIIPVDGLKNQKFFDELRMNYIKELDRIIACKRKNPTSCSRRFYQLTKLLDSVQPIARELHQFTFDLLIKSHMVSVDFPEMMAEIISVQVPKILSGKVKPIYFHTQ
Description: Antagonist activity for AR was evaluated according to the following method. COS-7 cells (ATCC) were transfected with pMMTV-luc vector (reporter plasmid having, as an androgen response element, […] long terminal repeat) and pEX-hAR vector (human androgen receptor expression vector: which expresses human AR gene under control of CMV promoter) by using Nucleofector (registered trademark) Kit R (Lonza) as a transfection reagent and Amaxa (Lonza). The COS-7 cells obtained after transfection were seeded in a clear bottom 96 well microplate (BD) at 1.5×10^4/well with phenol red free RPMI1640 containing 10% charcoal-treated fetal bovine serum (hereinbelow, DCC-FBS) (hereinbelow, the medium is referred to as an evaluation medium), and then cultured overnight. […] Then, the transcription activity value was measured. The transcription activity was measured by using Bright-Glo™ Luciferase Assay System (Promega).

androgen receptor = androgen receptor (Homo sapiens (Human), UniProt P10275, T878A); test: Activity of reducing expression level of androgen receptor (Western blotting of LNCaP cell lysate); conditions: 48 hours
Sequence of androgen receptor (P10275 whole entry T878A): as the sequence (P10275 whole entry) above, with T878A counted along it
Description: AR positive human prostate cancer cells LNCaP were seeded in a clear bottom 6 well microplate (BD) at 3.5×10^5/well with phenol red free RPMI1640 containing 5% FBS (hereinbelow, the medium is referred to as an evaluation medium), and then cultured overnight. The culture was added with the evaluation medium containing the compound of Examples or the compound of Comparative Examples such that the final concentration of the compound of Examples or the compound of Comparative Examples was 10000 nmol/L, followed by culture for 48 hours. After culture for 48 hours, the medium was removed and the cells were washed with PBS and added with 0.1 mL of Lysis buffer (M-PER added with Protease Inhibitor Cocktail), followed by keeping at 4° C. for 20 minutes. After cell lysis, the cell solution was centrifuged to recover the supernatant as cell lysate. […] The antibody-reacting band (anti AR receptor) was quantified by LAS-3000 (FUJIFILM) using Super Signal West Pico Substrate (Thermo Scientific) as a detection reagent.

[1] = test system: AR positive human prostate cancer cells VCaP; test: Agonist activity for AR (cell proliferation rate of VCaP cells); conditions: 72 hours, 2 to 10000 nmol/L, more than 10% at any concentration = agonist activity for AR
Description: AR positive human prostate cancer cells VCaP (In Vivo 15:163-168, 2001) were seeded in a clear bottom 96 well microplate (BD) at 1.5×10^4/well with phenol red free RPMI1640 containing 5% DCC-FBS (hereinbelow, the medium is referred to as an evaluation medium), and then cultured overnight. The culture was added with the evaluation medium containing the compound of Examples or the compound of Comparative Examples (final concentration of the compound of Examples or the compound of Comparative Examples: 2, 5, 14, 41, 123, 370, 1111, 3333, or 10000 nmol/L), followed by culture for 72 hours. Then, the number of viable cells was counted (test group). As a control, the cells were cultured after being added with the evaluation medium only, and the number of viable cells was counted (control group). The number of viable cells was measured by using CellTiter-Glo™ Luminescent Cell Viability Assay (Promega). From the measured number of viable cells, cell proliferation rate with respect to the compound of Examples or the compound of Comparative Examples was calculated based on the number of viable cells measured in the case of using the evaluation medium only. Cell proliferation rate (%) =(Number of viable cells in test group−Number of viable cells in control group)/(Number of viable cells in control group)×100
By considering an error in the number of viable cells measured in the case of using the evaluation medium only, when the cell proliferation rate was more than 10% at any concentration of the 9 concentrations which had been evaluated, it was determined to have an agonist activity for AR.

| SMILES | pIC50 (human androgen receptor) | Cell proliferation rate (%) [1] | other results |
| --- | --- | --- | --- |
| CC(C)Oc1ccc(Nc2ncnc3c2CN(c2ccc(C#N)c(C(F)(F)F)c2)CC3)cc1 [Comparative Example 2, 4-(4-((4-Isopropoxyphenyl)amino)-7,8-dihydropyrido[4,3-d]pyrimidin-6(5H)-yl)-2-(trifluoromethyl)benzonitrile, reference compound] | < 5.00 |  | antagonist activity for AR (in words) (human androgen receptor): no antagonist activity for AR; 10 μM AR expression reducing activity (androgen receptor): <10% |
| CC(C)(O)c1ccc(Nc2ncnc3c2CCN(c2ccc(C#N)cc2Cl)C3)nc1 [Comparative Example 5, 3-Chloro-4-(4-((5-(2-hydroxypropan-2-yl)pyridin-2-yl)amino)-5,6-dihydropyrido[3,4-d]pyrimidin-7(8H)-yl)benzonitrile, reference compound] | < 5.00 |  |  |
| CC(C)(O)c1ccc(Nc2ncnc3c2CCN(c2cc(Cl)cc(C#N)c2)C3)nc1 [Comparative Example 6, 3-Chloro-5-(4-((5-(2-hydroxypropan-2-yl)pyridin-2-yl)amino)-5,6-dihydropyrido[3,4-d]pyrimidin-7 (8H)-yl)benzonitrile, reference compound] | < 5.00 |  |  |
| CC(C)(O)c1ccc(Nc2ncnc3c2CCN(c2cccc(Cl)c2C#N)C3)nc1 [Comparative Example 7, 2-Chloro-6-(4-((5-(2-hydroxypropan-2-yl)pyridin-2-yl)amino)-5,6-dihydropyrido[3,4-d]pyrimidin-7 (8H)-yl)benzonitrile, reference compound] | < 5.00 |  |  |
| N#Cc1cc(C(F)(F)F)ccc1N1CCc2c(ncnc2Nc2ccc(C(=O)NCC(F)(F)F)cn2)C1 [Comparative Example 8, 6-((7-(2-Cyano-4-(trifluoromethyl)phenyl)-5,6,7,8-tetrahydropyrido[3,4-d]pyrimidin-4-yl)amino)-N-(2,2,2-trifluoroethyl)nicotinamide, reference compound] | < 5.00 |  |  |
| N#Cc1ccc(C(F)(F)F)cc1N1CCc2c(ncnc2Nc2ccc(C(=O)NCC(F)(F)F)cn2)C1 [Comparative Example 9, 6-((7-(2-Cyano-5-(trifluoromethyl)phenyl)-5,6,7,8-tetrahydropyrido[3,4-d]pyrimidin-4-yl)amino)-N-(2,2,2-trifluoroethyl)nicotinamide, reference compound] | < 5.00 |  |  |
| N#Cc1cccc(N2CCc3c(ncnc3Nc3ccc(C(=O)NCC(F)(F)F)cn3)C2)c1C(F)(F)F [Comparative Example 10, 6-((7-(3-Cyano-2-(trifluoromethyl)phenyl)-5,6,7,8-tetrahydropyrido[3,4-d]pyrimidin-4-yl)amino)-N-(2,2,2-trifluoroethyl)nicotinamide, reference compound] | < 5.00 |  |  |
| CC(C)(O)c1ccc(Nc2ncnc3c2CCN(c2ccc(C#N)cc2)C3)nc1 [Comparative Example 11, 4-(4-((5-(2-Hydroxypropan-2-yl)pyridin-2-yl)amino)-5,6-dihydropyrido[3,4-d]pyrimidin-7(8H)-yl)benzonitrile, reference compound] | < 5.00 |  | antagonist activity for AR (in words) (human androgen receptor): did not show the antagonist activity for AR |
| N#Cc1ccc(N2CCc3c(ncnc3Nc3ccc(OCCn4ccnn4)nc3)C2)cc1C(F)(F)F [Example 15, 4-(4-((6-(2-(1H-1,2,3-Triazol-1-yl)ethoxy)pyridin-3-yl)amino)-5,6-dihydropyrido[3,4-d]pyrimidin-7 (8H)-yl)-2-(trifluoromethyl)benzonitrile] | 6.89 | 0.3% |  |
| N#Cc1ccc(N2CCc3c(ncnc3Nc3ccc(NC(=O)OCC(F)(F)F)cn3)C2)cc1C(F)(F)F [Example 21, 2,2,2-Trifluoroethyl (6-((7-(4-cyano-3-(trifluoromethyl)phenyl)-5,6,7,8,-tetrahydropyrido[3,4-d]pyrimidin-4-yl)amino)pyridin-3-yl)carbamate] | 6.42 | −0.6% |  |
| N#Cc1ccc(N2CCc3c(ncnc3Nc3ccc(CC(=O)NCC(F)(F)F)cn3)C2)cc1C(F)(F)F [Example 22, 2-(6-((7-(4-Cyano-3-(trifluoromethyl)phenyl)-5,6,7,8-tetrahydropyrido[3,4-d]pyrimidin-4-yl)amino)pyridin-3-yl)-N-(2,2,2-trifluoroethyl)acetamide] | 6.43 |  |  |
| N#Cc1ccc(N2CCc3c(ncnc3Nc3ncc(C(=O)NCC(F)(F)F)nn3)C2)cc1C(F)(F)F [Example 25, 3-((7-(4-Cyano-3-(trifluoromethyl)phenyl)-5,6,7,8-tetrahydropyrido[3,4-d]pyrimidin-4-yl)amino)-N-(2,2,2-trifluoroethyl)-1,2,4-triazine-6-carboxamide] | 5.48 | 6.3% |  |
| N#Cc1ccc(N2CCc3c(ncnc3Nc3cc(C(=O)NCC(F)(F)F)ccn3)C2)cc1C(F)(F)F [Example 31, 2-((7-(4-Cyano-3-(trifluoromethyl)phenyl)-5,6,7,8-tetrahydropyrido[3,4-d]pyrimidin-4-yl)amino)-N-(2,2,2-trifluoroethyl)isonicotinamide] | 6.41 |  |  |
| CC(C)(O)C1CCN(C(=O)c2nnc(Nc3ncnc4c3CCN(c3ccc(C#N)c(C(F)(F)F)c3)C4)o2)CC1 [Example 43, 4-(4-((5-(4-(2-Hydroxypropan-2-yl)piperidin-1-carbonyl)-1,3,4-oxadiazol-2-yl)amino)-5,6-dihydropyrido[3,4-d]pyrimidin-7(8H)-yl)-2-(trifluoromethyl)benzonitrile] | 6.10 |  |  |
| CC(C)(O)c1cnc(Nc2ncnc3c2CCN(c2ccc(C#N)c(Cl)c2)C3)cc1F [Example 45, 2-Chloro-4-(4-((4-fluoro-5-(2-hydroxypropan-2-yl)pyridin-2-yl)amino)-5,6-dihydropyrido[3,4-d]pyrimidin-7 (8H)-yl)benzonitrile] | 6.03 |  |  |
| N#Cc1ccc(N2CCc3c(ncnc3Nc3ccc(C(=O)NCC(F)F)nc3)C2)cc1C(F)(F)F [Example 48, 5-((7-(4-Cyano-3-(trifluoromethyl)phenyl)-5,6,7,8-tetrahydropyrido[3,4-d]pyrimidin-4-yl)amino)-N-(2,2-difluoroethyl)picolinamide] | 6.31 | −2.6% |  |
| CC(C)(COc1ccc(Nc2ncnc3c2CCN(c2ccc(C#N)c(Cl)c2)C3)nc1)n1cnnn1 [Example 53, 2-Chloro-4-(4-((5-(2-methyl-2-(1H-tetrazol-1-yl)propoxy)pyridin-2-yl)amino)-5,6-dihydropyrido[3,4-d]pyrimidin-7(8H)-yl)benzonitrile] | 7.26 |  |  |
| COc1ccc(Nc2ncnc3c2CCN(c2ccc(C#N)c(Cl)c2)C3)cc1 [Example 54, 2-Chloro-4-(4-((4-methoxyphenyl)amino)-5,6-dihydropyrido[3,4-d]pyrimidin-7(8H)-yl)benzonitrile] |  | 3.4% |  |
| COc1cccc(Nc2ncnc3c2CCN(c2ccc(C#N)c(Cl)c2)C3)c1 [Example 55, 2-Chloro-4-(4-((3-methoxyphenyl)amino)-5,6-dihydropyrido[3,4-d]pyrimidin-7(8H)-yl)benzonitrile] |  | 1.0% |  |
| N#Cc1ccc(N2CCc3c(ncnc3Nc3ccc(C4(O)CCC4)c(F)n3)C2)cc1Cl [Example 56, 2-Chloro-4-(4-((6-fluoro-5-(1-hydroxycyclobutyl)pyridin-2-yl)amino)-5,6-dihydropyrido[3,4-d]pyrimidin-7 (8H)-yl)benzonitrile] | 6.08 | 8.0% |  |
| CC(O)c1ccc(Nc2ncnc3c2CCN(c2ccc(C#N)c(C(F)(F)F)c2)C3)cc1 (centres unmarked) [Example 58] |  | 2.0% |  |
